Like-named read-outs stand apart in the source and are kept apart here.
Columns and labels:
Mouse LAG3 protein = target: T1, Mouse LAG3 protein (Mus musculus, UniProt Q61790); assay: SPR interaction assay, CM5 chip amino coupling, mouse LAG3; assay type: binding; conditions: for Kd / Rmax / Note / kon / koff: ligand Mouse LAG3 protein; for Note: bound or not bound; for kon: read-out: Ka; for koff: read-out: Kd
T1 sequence (Q61790 24-521): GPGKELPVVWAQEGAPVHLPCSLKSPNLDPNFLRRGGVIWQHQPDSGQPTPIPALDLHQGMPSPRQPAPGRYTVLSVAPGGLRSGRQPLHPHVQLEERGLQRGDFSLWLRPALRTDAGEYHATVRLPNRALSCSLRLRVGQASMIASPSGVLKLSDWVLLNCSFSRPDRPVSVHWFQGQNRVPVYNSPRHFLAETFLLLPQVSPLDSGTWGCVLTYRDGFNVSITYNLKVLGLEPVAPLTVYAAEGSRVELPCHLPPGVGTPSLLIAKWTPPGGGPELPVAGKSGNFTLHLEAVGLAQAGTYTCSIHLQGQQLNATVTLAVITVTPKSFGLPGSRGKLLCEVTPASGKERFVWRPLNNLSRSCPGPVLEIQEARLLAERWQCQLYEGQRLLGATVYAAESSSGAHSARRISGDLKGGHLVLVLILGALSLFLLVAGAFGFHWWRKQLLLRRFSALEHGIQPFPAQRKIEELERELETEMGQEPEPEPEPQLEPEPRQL
Excerpt: A surface plasmon is an electromagnetic wave on a metal surface and is generated by the interaction of photons and electrons which are freely vibrated. Surface plasmon resonance (SPR) is an optical phenomenon that occurs on the surfaces of two media, and such a phenomenon can be induced by photons or electrons. When light enters an optically thinner medium from an optically denser medium, the phenomenon of total reflection occurs, and an evanescent wave is generated and enters the optically thinner medium. When the totally reflected evanescent wave meets the plasmon wave on the metal surface, resonance may occur, the energy of the reflected light decreases, and a resonance peak occurs on the energy spectrum of the reflected light. Such a resonance is called surface plasmon resonance. The angle of incidence causing the surface plasmon resonance is called an SPR angle. An SPR biosensor provides a sensitive, non-labeled detection technique for monitoring intermolecular interactions in real time. The sensor detects the change in the SPR angle, and the SPR is related to the refractive index of the metal surface. When an analyte binds to the chip surface, the refractive index of the chip surface changes, thus causing the change in the SPR angle. This is the basic principle for the SPR biosensor to detect intermolecular interactions in real time. During the interaction analysis, the change in the SPR angle is recorded on the sensorgram in real time.
Through the information query, the theoretical isoelectric point of the LAG3 protein is about 9.82, and the amino coupling method was contemplated to immobilize the protein. Since the main ligands of the LAG3 protein are FGL1 and MHCII proteins, after the LAG3 protein was coupled, the FGL1 protein sampling method was used to verify the protein activity.
Protein coupling buffer solution: 1.05× PBS-P+; 1.02× PBS-P+
Interaction buffer solution: 1.0× PBS-P+, 5% DMSO; 1.0× PBS-P+, 2% DMSO
In this experiment, by using the CM5 chip amino coupling method, the human LAG3 protein was immobilized to the Fc2 or Fc3 channel, and the mouse LAG3 protein was immobilized to the Fc3 or Fc4 channel.
LAG3 protein coupling conditions were as follows: the concentration was about 25 µg/mL, the system was sodium acetate solution with a pH of 5.5, the chip activation time was 420 s, and the blocking time was 420 s.
LAG3 protein coupling conditions were as follows: the concentration was about 50 µg/mL, the system was sodium acetate solution with a pH of 4.5, the chip activation time was 420 s, and the blocking time was 420 s.

mouse melanoma B16F10 [1] = assay type: in vivo; conditions: 15 days
Procedure: (§1) (1) 43 8-week-old female C57B/L mice were selected and divided into 5 cages. One preserved B16F10 tumor-bearing female C57L mouse was sacrificed by cervical dislocation. 75% alcohol was sprayed on the skin of the mouse in a laminar flow cabinet, and the tumor tissue of the tumor-bearing mouse was separated by sterilized surgical instruments and cut into a sterilized 5 mL homogenizer with ophthalmic scissors. The tumor tissue was slowly milled on ice to form a tumor fluid. The number of cells was 6.85 × 10^7 cells/mL as counted with a BioRad counting instrument. The tumor fluid was placed in an Erlenmeyer flask in an ice bath for later use. The tumor fluid was evenly aspirated using a 1 mL sterile syringe and inoculated 0.2 mL/C57/L mouse. After the inoculation was completed, the mice continued to be fed under the initial feeding conditions.
(2) Animal grouping and administration: On the second day after tumor fluid inoculation of C57B/L mice, 43 mice were randomly grouped: 10 mice in a control group, 8 mice in a Compound 4-20 mg/kg group, 8 mice in a Compound 4-30 mg/kg group, 8 mice in a Compound 4-40 mg/kg group, and 9 mice in a positive control drug cyclophosphamide CTX-100 mg/kg group. The mice were weighed and administered.
(3) Drug preparation: The corresponding amounts of the drugs were weighed according to the final concentrations of the experimental groups. The drugs of the Compound 4-20 mg/kg group and the Compound 4-30 mg/kg group were prepared with 0.25% CMCNa + Tween 80 and administered orally once a day. The drug of Compound 4-40 mg/kg was prepared with normal saline + Tween 80 and administered intraperitoneally. CTX was prepared with normal saline and administered intraperitoneally once. The mice in the control group were given 0.25% CMCNa solution orally.
(§2) (4) The animals were sacrificed, and the tumors were separated and weighed. The animals in each group were treated immediately 1 h after administration on the last day and weighed, and the tumor tissue was weighed.

mouse melanoma B16F10 [2] = assay type: in vivo
Procedure: as §1, §2
Animal grouping and administration: On the second day after tumor fluid inoculation of C57B/L mice, tumor-bearing mice were randomly grouped: a control group, a Compound 8-5 mg/kg group, a Compound 8-10 mg/kg group, a Compound 8-20 mg/kg group, and a positive control drug cyclophosphamide CTX-100 mg/kg group. The animals were weighed and administered daily. The drugs to be tested were administered orally daily, and the positive control drug CTX was administered intraperitoneally once. After the experiment was completed, the body weights and tumor weights of the animals were weighed, and the tumor weight inhibition rate (%) was calculated.

[3] = B16F10, 40 mg/kg, table prints po, text says intraperitoneally

CCCCCCOc1ccc2cc1-c1cc(ccc1OCCCCCC)C(=O)CCCCCC2=O [Compound 4]
interaction with the mouse LAG3 protein (Mouse LAG3 protein): interacts with the mouse LAG3 protein
Kd (Mouse LAG3 protein): 13.2 µM
Rmax (Mouse LAG3 protein): 5.214 RU
Note (Mouse LAG3 protein): Bound
kon (Mouse LAG3 protein): 1060 M⁻¹ s⁻¹
koff (Mouse LAG3 protein): 0.014 s⁻¹
Inhibition rate (mouse melanoma B16F10 [1]; B16F10, 20 mg/kg po once a day): 55.12%
Tumor weight (mouse melanoma B16F10 [1]; B16F10, 20 mg/kg po once a day): 1.304 ± 0.623 g
Inhibition rate (mouse melanoma B16F10 [1]; B16F10, 30 mg/kg po once a day): 28.00%
Tumor weight (mouse melanoma B16F10 [1]; B16F10, 30 mg/kg po once a day): 2.091 ± 1.199 g
Inhibition rate (mouse melanoma B16F10 [1]; [3]): 44.40%
Tumor weight (mouse melanoma B16F10 [1]; [3]): 1.615 ± 0.495 g

CCCCCCOc1ccc(C(=O)O)cc1-c1cc(C(=O)NCCCCNC(=O)C(F)(F)F)ccc1OCCCCCC [Compound 8]
Inhibition rate (mouse melanoma B16F10 [2]; B16F10, 5 mg/kg orally daily): 16.94%
Tumor weight (mouse melanoma B16F10 [2]; B16F10, 5 mg/kg orally daily): 1.50 ± 0.27 g
Inhibition rate (mouse melanoma B16F10 [2]; B16F10, 10 mg/kg orally daily): 19.78%
Tumor weight (mouse melanoma B16F10 [2]; B16F10, 10 mg/kg orally daily): 1.45 ± 0.70 g
Inhibition rate (mouse melanoma B16F10 [2]; B16F10, 20 mg/kg orally daily): 53.64%
Tumor weight (mouse melanoma B16F10 [2]; B16F10, 20 mg/kg orally daily): 0.80 ± 0.46 g
interaction with the mouse LAG3 protein (Mouse LAG3 protein): interacts with the mouse LAG3 protein
Kd (Mouse LAG3 protein): 5.42 µM
Rmax (Mouse LAG3 protein): 3.955 RU
Note (Mouse LAG3 protein): Bound
kon (Mouse LAG3 protein): 1870 M⁻¹ s⁻¹
koff (Mouse LAG3 protein): 0.0101 s⁻¹
